# Assay results from ChEMBL document CHEMBL1201862, “PubChem BioAssay data set” (2004).
# Activity calls are given as the source filed them.
# What was measured:
# [1] = molecular target: Peroxisome proliferator-activated receptor gamma/Nuclear receptor coactivator 2 (Homo sapiens, UniProt P37231); format: functional;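 note: agonist potency for raising coactivator recruitment to the receptor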
# [2] = molecular target: Peroxisome proliferator-activated receptor gamma/Nuclear receptor coactivator 1 (Homo sapiens, UniProt P37231); format: functional;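 note: agonist potency as compounds enhance coactivator SRC-1 recruitment to PPARgamma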
# [3] = molecular target: Peroxisome proliferator-activated receptor gamma/Nuclear receptor coactivator 3 (Homo sapiens, UniProt P37231); format: functional;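 note: agonist potency for raising coactivator recruitment to the receptor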
# Chain of Peroxisome proliferator-activated receptor gamma/Nuclear receptor coactivator 3 (P37231 whole entry, the tested form may be a part): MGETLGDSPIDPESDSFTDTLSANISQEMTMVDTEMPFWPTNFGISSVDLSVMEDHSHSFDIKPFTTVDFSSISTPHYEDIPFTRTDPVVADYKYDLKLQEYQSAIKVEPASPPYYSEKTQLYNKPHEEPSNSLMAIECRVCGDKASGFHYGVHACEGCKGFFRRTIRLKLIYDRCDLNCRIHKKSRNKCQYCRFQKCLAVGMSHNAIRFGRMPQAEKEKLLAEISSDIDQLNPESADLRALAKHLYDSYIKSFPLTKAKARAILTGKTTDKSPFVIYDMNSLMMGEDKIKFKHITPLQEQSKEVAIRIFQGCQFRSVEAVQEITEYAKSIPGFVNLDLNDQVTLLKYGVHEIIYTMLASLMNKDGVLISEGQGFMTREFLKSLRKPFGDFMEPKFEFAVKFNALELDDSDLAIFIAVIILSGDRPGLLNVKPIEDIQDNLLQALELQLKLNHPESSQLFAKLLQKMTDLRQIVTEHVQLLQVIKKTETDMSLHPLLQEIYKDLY
# Chain of Peroxisome proliferator-activated receptor gamma/Nuclear receptor coactivator 3 (Q9Y6Q9 whole entry, further chain, the tested form may be a part): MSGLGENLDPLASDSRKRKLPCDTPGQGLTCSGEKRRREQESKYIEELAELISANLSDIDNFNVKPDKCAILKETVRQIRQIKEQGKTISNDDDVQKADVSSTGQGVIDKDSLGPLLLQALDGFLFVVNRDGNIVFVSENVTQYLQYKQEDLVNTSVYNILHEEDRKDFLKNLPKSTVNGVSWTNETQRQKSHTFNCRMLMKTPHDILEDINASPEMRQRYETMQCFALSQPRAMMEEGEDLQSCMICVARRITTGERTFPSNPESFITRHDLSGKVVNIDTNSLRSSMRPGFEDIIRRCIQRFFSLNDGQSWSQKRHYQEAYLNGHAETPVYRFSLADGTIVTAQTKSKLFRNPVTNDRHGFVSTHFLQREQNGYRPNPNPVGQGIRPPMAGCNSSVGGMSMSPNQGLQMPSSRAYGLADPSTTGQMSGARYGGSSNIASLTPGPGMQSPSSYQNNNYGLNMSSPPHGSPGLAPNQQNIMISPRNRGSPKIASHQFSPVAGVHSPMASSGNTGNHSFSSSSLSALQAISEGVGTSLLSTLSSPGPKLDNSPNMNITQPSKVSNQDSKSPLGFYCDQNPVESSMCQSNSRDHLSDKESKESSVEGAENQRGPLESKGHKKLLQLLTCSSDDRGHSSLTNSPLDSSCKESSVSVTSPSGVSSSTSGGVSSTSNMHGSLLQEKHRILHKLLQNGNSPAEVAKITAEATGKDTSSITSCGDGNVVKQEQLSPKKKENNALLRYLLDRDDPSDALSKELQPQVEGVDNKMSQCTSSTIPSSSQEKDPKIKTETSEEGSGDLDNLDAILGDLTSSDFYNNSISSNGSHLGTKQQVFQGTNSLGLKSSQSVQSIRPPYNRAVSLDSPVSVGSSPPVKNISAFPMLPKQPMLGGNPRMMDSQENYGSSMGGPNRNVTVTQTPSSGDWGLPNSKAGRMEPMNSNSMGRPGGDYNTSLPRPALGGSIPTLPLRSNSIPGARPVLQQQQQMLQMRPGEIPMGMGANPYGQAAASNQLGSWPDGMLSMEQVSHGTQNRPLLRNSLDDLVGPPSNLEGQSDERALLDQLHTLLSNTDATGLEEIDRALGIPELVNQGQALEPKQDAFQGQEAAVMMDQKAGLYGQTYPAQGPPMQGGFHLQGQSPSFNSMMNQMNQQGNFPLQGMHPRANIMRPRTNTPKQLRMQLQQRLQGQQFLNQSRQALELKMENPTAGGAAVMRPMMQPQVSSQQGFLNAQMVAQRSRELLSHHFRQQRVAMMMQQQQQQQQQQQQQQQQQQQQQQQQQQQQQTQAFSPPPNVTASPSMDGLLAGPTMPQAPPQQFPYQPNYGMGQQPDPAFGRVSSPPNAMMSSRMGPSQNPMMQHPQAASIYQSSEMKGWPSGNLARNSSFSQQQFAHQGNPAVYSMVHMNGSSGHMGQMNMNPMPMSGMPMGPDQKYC
# Estrogen receptor = molecular target: T1, Estrogen receptor (Homo sapiens, UniProt P03372); assay: potentiators of ERα–SRC-1 coactivator binding, dose response, biochemical, TR-FRET, ERα LBD (AID 737)
# T1 sequence (P03372 whole entry): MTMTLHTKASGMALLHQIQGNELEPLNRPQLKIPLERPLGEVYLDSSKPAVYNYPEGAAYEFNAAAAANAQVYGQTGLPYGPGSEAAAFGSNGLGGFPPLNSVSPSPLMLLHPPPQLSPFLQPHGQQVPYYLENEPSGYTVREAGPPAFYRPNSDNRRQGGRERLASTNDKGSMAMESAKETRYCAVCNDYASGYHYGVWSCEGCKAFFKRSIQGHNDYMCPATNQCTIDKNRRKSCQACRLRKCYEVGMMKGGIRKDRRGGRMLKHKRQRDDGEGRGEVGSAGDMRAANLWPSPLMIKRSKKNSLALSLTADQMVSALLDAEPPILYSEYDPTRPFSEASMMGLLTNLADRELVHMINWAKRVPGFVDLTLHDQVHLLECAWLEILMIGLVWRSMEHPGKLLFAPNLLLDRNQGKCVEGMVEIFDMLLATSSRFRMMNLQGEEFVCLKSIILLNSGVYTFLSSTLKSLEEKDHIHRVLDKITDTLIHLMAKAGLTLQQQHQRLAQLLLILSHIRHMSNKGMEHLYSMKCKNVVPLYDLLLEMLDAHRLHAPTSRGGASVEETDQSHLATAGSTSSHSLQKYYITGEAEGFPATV
# [4] = molecular target: T2, Epstein-Barr nuclear antigen 1 (Epstein-Barr virus (strain B95-8) (HHV-4) (Human herpesvirus 4), UniProt P03211); assay: EBNA-1 inhibitors, dose response, biochemical, fluorescence polarization, 1536-well (AID 2381); set-up: species or system human gammaherpesvirus 4;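 note: fluorescence polarization of a Cy5 DNA probe bound by EBNA-1 protein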
# T2 sequence (P03211 whole entry): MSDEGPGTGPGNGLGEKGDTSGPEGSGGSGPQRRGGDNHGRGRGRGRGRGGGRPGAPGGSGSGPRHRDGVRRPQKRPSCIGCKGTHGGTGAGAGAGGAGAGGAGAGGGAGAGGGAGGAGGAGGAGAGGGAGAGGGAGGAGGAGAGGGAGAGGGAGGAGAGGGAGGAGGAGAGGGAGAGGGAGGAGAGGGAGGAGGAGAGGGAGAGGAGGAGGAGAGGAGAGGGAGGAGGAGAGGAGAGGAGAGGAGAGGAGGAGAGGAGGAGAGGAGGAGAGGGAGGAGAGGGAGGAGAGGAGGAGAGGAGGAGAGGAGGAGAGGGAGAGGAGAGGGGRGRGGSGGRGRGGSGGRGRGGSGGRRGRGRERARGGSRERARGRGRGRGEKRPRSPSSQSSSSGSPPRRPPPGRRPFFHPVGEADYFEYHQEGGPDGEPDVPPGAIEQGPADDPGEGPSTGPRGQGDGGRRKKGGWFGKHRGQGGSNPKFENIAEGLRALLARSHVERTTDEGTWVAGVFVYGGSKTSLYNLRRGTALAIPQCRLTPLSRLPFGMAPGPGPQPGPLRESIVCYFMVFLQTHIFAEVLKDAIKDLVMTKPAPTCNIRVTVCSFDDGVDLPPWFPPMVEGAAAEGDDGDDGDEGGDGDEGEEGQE
# [5] = molecular target: T3, Lytic switch protein BZLF1 (Epstein-Barr virus (strain B95-8) (HHV-4) (Human herpesvirus 4), UniProt P03206); assay: EBV ZTA inhibitors, dose response, counter-screen for EBNA-1 inhibitor project, biochemical, fluorescence polarization, Epstein-Barr virus, 1536-well (AID 2377); set-up: species or system human gammaherpesvirus 4;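 note: fluorescence polarization of Cy5-labelled ZRE DNA probe bound by purified Zta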
# T3 sequence (P03206 whole entry): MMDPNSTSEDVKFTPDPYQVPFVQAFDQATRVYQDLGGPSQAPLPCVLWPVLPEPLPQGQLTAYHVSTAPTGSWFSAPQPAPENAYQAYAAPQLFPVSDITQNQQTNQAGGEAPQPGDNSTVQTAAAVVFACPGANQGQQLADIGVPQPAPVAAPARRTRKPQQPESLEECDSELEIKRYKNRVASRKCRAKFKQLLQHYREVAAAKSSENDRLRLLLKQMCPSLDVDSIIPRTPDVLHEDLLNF
# Protein Tat = molecular target: T4, Protein Tat (Human immunodeficiency virus type 1 group M subtype B (isolate HXB2)(HIV-1), UniProt P04608); format: functional;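 note: tat binding to TAR RNA read out by fluorescence polarization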
# T4 sequence (P04608 whole entry): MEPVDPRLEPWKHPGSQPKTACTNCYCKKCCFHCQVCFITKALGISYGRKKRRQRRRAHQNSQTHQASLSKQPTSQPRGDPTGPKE
# [6] = molecular target: FAD-linked sulfhydryl oxidase ALR (Homo sapiens, UniProt P55789); assay: inhibitors of human ALR sulfhydryl oxidase, dose response, biochemical, H2O2 detection, luminescence, cherry-pick (AID 493248)
# Chain of FAD-linked sulfhydryl oxidase ALR (P55789 whole entry): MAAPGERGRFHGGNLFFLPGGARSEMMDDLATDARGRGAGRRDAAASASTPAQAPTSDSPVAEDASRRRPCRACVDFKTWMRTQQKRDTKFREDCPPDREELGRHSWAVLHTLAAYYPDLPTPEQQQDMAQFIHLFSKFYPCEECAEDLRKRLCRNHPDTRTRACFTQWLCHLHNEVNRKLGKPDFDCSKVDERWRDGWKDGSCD
# [7] = inhibitors of Vif binding to APOBEC3G peptide, primary screen, biochemical, TR-FRET, GST-Vif 1-94, biotin-A3G peptide, dose response retest (AID 1117319); format: functional;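 note: TR-FRET signal of purified GST-Vif binding a biotinylated A3G peptide; inhibitors lower the FRET signal by blocking Vif and A3G binding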
# [8] = HepG2 cell cytotoxicity, dose response, cytotoxicity control, cherry-picked samples (AID 1159577); format: functional, cell-based
# [9] = P. falciparum 3D7-ScDHODH growth inhibitors, dose response, SYBR Green, dry powder samples (AID 1159570); format: functional, cell-based;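 note: parasite growth measured after 72 hours of compound exposure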
# [10] = HepG2 cell cytotoxicity, dose response, cytotoxicity control, plate reader, dry powder samples (AID 1159569); format: functional, cell-based;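 note: inhibitor potency with signal falling toward the positive control level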
# [11] = P. falciparum Dd2 growth inhibitors, dose response, SYBR Green, dry powder samples (AID 1159566); format: functional, cell-based;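 note: potency for growth inhibition with lower SYBR green DNA signal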
# [12] = P. falciparum Dd2 growth inhibitors, dose response, SYBR Green, cherry-picked samples (AID 1159567); format: functional, cell-based
# [13] = P. falciparum ATP4 D1247Y mutant growth inhibitors, dose response, NITD609-resistant line, SYBR Green, dry powder (AID 1159571); format: functional, cell-based;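 note: parasites synchronized at ring stage by sorbitol before testing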
# [14] = THP-1 cell cytotoxicity, dose response, cytotoxicity control for Vif-APOBEC3G degradation inhibitor project, THP-1 cells (AID 1117359); format: functional; conditions: Human immunodeficiency virus 1, THP-1
# [15] = molecular target: T5, Polyadenylate-binding protein 1 (Homo sapiens, UniProt P11940); assay: PABP1 MLLE–PAM2 interaction inhibitors, dose response, miRNA deadenylation inhibitor project, biochemical, fluorescence polarization, Cy5-PAM2 peptide, secondary (AID 602260); format: functional; conditions: read-out: IC50_Mean
# T5 sequence (P11940 whole entry): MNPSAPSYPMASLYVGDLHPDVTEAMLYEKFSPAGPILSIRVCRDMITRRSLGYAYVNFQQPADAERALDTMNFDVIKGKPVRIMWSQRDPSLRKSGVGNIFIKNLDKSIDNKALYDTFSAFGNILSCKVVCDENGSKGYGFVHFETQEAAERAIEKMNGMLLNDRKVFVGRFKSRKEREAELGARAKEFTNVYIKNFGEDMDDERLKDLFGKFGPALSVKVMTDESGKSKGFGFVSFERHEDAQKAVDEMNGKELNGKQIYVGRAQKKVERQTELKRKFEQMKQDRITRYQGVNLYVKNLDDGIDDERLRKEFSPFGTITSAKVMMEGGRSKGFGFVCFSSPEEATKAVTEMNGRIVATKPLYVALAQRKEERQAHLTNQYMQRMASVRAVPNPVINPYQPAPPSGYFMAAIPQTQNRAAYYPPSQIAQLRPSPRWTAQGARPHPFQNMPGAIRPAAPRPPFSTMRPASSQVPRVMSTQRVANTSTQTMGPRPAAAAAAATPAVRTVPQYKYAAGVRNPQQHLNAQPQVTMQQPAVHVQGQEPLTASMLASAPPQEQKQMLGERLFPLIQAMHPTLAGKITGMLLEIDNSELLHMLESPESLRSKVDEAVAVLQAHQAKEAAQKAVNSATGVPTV
# Protein RecA = molecular target: T6, Protein RecA (Mycobacterium tuberculosis, UniProt P9WHJ3); assay: Fluorescence Cell-Free Homogeneous Dose Retest to Identify Inhibitors of RecA-Intein Splicing Activity. [Related pubchem assays (depositor defined):AID2097, AID2223, AID489010, AID492950]; format: functional
# T6 sequence (P9WHJ3 whole entry): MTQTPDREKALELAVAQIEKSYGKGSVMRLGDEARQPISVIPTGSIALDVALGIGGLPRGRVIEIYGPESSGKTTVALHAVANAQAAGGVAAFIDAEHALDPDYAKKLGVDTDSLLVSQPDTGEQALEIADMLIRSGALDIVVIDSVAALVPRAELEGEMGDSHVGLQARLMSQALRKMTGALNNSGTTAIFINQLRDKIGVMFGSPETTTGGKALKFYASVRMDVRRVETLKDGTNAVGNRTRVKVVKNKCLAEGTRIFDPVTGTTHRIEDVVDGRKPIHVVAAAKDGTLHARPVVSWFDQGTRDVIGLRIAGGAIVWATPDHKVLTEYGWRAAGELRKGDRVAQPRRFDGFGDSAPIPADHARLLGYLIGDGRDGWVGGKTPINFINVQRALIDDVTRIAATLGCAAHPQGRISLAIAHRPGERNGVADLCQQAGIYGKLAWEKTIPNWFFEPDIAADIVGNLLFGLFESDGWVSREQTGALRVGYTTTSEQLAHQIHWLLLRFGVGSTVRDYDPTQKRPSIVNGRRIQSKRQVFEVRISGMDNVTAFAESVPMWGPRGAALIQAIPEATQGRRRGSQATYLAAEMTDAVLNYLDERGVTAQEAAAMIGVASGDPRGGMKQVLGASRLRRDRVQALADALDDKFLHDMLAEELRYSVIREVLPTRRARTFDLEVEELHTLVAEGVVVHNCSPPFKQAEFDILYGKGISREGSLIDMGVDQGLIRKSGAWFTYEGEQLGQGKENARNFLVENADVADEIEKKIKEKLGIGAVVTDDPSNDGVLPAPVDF
# [16] = growth suppression of beta-catenin-knockout colon cells, dose response, cell-based, HCT116, human colon tumor (AID 1045); format: functional;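 note: HCT116 colon tumor cells with beta catenin knocked out; cells exposed to compound for 60 hours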
# [17] = molecular target: T5, Polyadenylate-binding protein 1; assay: PABP1 MLLE–PAM2 binding inhibitor potency, dose response, biochemical, fluorescence polarization, FITC-PAM2 peptide (AID 602259); format: functional; conditions: read-out: IC50_Mean
# [18] = molecular target: T7, Replicative DNA helicase DnaB (Mycobacterium tuberculosis, UniProt P9WMR3); assay: DnaB intein splicing inhibitors, dose response, biochemical, cell-free fluorescence (AID 449749); format: functional
# T7 sequence (P9WMR3 whole entry): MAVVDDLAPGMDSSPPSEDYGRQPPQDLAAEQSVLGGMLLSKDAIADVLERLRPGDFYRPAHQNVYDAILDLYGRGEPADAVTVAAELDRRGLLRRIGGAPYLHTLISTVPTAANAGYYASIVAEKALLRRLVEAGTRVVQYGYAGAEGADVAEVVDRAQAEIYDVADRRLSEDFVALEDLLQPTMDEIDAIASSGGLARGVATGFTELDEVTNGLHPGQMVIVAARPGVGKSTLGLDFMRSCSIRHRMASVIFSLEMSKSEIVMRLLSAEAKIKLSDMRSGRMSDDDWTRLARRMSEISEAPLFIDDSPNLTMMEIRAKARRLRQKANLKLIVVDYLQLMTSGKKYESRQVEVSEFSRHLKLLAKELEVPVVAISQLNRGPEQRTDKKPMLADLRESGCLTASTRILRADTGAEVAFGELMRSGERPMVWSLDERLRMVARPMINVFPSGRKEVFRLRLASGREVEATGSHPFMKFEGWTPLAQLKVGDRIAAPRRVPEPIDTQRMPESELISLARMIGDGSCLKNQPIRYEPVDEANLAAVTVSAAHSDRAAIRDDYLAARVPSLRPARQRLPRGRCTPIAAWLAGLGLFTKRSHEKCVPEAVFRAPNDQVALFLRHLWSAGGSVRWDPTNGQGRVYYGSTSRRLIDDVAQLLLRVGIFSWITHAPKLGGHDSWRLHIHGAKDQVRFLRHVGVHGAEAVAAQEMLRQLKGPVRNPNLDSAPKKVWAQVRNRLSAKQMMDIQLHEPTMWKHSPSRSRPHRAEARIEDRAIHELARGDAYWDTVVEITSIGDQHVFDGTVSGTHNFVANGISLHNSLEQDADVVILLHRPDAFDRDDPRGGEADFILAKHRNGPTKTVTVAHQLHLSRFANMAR
# [19] = growth suppression of PTEN-null colon cells, dose response, cell-based, HCT116 PTEN knockout (AID 1047); format: functional;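 note: HCT116 colon tumor cells with PTEN knocked out; cells exposed to compound for 60 hours before readout; potency for loss of cell viability measured by luminescence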
# Chain of Peroxisome proliferator-activated receptor gamma/Nuclear receptor coactivator 2 (P37231 whole entry): as the sequence (P37231 whole entry, the tested form may be a part) above
# Chain of Peroxisome proliferator-activated receptor gamma/Nuclear receptor coactivator 2 (Q15596 whole entry, further chain): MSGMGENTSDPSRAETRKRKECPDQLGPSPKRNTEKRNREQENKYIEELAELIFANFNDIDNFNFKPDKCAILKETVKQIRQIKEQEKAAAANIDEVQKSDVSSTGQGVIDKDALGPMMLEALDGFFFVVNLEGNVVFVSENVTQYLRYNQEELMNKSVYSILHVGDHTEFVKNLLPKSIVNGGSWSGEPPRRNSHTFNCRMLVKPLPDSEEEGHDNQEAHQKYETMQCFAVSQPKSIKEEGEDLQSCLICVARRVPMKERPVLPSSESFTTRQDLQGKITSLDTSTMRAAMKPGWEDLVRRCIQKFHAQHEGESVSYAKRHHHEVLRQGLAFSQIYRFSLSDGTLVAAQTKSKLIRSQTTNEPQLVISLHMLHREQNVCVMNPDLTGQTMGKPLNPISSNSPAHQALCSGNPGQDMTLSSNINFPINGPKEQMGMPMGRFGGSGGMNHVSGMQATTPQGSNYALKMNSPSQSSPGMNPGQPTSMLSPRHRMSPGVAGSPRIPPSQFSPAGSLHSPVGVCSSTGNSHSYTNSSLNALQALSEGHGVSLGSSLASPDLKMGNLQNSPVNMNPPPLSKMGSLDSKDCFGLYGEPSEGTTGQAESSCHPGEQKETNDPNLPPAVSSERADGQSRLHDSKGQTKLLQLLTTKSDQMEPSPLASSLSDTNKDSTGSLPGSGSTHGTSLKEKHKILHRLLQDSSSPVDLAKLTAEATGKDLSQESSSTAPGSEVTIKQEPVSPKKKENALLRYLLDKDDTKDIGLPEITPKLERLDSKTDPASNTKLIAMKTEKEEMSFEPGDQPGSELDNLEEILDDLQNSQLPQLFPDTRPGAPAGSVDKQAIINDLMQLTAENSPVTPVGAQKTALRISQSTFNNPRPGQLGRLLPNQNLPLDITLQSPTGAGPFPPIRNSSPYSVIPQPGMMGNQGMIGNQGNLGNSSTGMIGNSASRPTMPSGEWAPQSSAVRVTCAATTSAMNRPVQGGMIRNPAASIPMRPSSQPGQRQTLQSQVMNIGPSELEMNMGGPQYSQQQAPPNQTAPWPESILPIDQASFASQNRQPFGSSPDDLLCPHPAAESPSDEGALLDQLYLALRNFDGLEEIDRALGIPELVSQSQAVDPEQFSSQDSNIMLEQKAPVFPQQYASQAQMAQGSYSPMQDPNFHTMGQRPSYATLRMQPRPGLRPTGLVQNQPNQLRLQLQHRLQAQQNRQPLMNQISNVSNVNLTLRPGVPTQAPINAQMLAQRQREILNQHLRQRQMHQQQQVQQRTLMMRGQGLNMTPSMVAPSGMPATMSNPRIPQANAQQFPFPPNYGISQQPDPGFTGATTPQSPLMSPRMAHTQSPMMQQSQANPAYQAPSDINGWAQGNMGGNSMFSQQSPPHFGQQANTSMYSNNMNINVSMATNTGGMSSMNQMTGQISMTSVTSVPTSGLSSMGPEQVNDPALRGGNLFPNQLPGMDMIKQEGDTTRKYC
structure (smiles),measurement,setting,value
O=S1(=O)CC2N=C(N(Cc3ccc(F)cc3Cl)c3ccccc3F)SC2C1 (stereo unspecified),EC50,[1],> 79.4 µM (not active)
same,EC50,[2],> 79.4 µM (not active)
same,EC50,[3],> 79.4 µM (not active)
CCOC(=O)C(C)Oc1cccc2c(=O)n(CC(=O)Nc3ccc4c(c3)OCCO4)ccc12 (stereo unspecified),EC50,Estrogen receptor,12.6 µM (not active)
COc1ccc(Cc2nnc(NC(=O)Nc3ccccc3F)s2)cc1OC,IC50,[4],6.66 µM (active)
same,IC50,[5],> 111 µM (not active)
COc1ccccc1CN(C)C(=O)c1ccc2c(c1)NC(=O)CS2,EC50,[1],> 79.4 µM (not active)
same,EC50,[2],> 79.4 µM (not active)
same,EC50,[3],> 79.4 µM (not active)
COc1ccc(S(=O)(=O)Cc2ccc(C(=O)N3CCN(c4ccccc4)CC3)o2)cc1,IC50,Protein Tat,> 100 µM (active)
same,AC50,[6],19.1 µM (active)
same,IC50,[7],> 100 µM (active)
C[C@@H]1CN([C@@H](C)CO)C(=O)Cc2cc(NC(=O)Nc3ccc(C(F)(F)F)cc3)ccc2O[C@H]1CN(C)Cc1ccc(-c2ccccc2)cc1,AC50,[8],21.4 µM (active)
same,AC50,[9],1.09 µM (active)
same,AC50,[10],19.3 µM (active)
same,AC50,[11],1.11 µM (active)
same,AC50,[12],1.8 µM (active)
same,AC50,[13],1.83 µM (active)
C[C@]12CC[C@@H]3c4ccc(O)cc4[C@@H](O)C[C@H]3[C@@H]1CC[C@@H]2O,EC50,Estrogen receptor,12.7 µM (active)
O=[N+]([O-])c1c(NCCCO)cc(SCc2ccco2)c2nonc12,CC50,[14],> 40 µM (active)
same,IC50,[15],> 66 µM (inactive)
same,EC50,Protein RecA,5.64 µM (active)
same,EC50,[16],18 µM (active)
same,IC50,[17],> 66 µM (inactive)
same,AC50,[18],57.7 µM (active)
same,EC50,[19],27.1 µM (active)
